Where a name gives a salt, the structure may show the parent alone.

The assay has as its system Von Bezold-Jarisch Reflex induced by 5-HT. Nature of the assay: Von Bezold-Jarisch Reflex induced by 5-HT injected intravenously into the rat. Format: in vivo. The text has this:
The activity of these compounds against 5-HT can be assessed in vivo by measurement of the effect of the compound on the Von Bezold-Jarisch Reflex induced by 5-HT injected intravenously into the rat (see Paintal A.S., Physiol. Rev. 53, 159-227, 1973; J.R. Fozard, Naunyn-Schmiedeberg's Arch. Pharmacol., 326, 1984, 36-44). The transient cardiac slowing arises from an increased afferent vagus activity arising from stimulation by 5-HT of sensory afferent fibers in and around the heart.

[1] abbreviates: doses of 0.01-0.1 mg/kg given intravenously.
The mark [2] stands for this setting: doses of 0.25-1 mg/kg given orally.

Consider `O=C(OC1CC2CC3CC(C1)N2CC3=O)c1c[nH]c2ccccc12` (stereo not drawn) [endo-hexahydro-8-(3-indolylcarbonyloxy)-2,6-methano-2H-quinolizin-3(4H)one hydrochloride], for which the “suppression of the Von Bezold-Jarisch Reflex induced by 5-HT” value (shortened to “suppression”) under setting [1] is reported as “suppressed the response dose-dependently” and the “suppression” value under setting [2] is recorded as “suppressed the response dose-dependently”.

As to `Cc1cc(C)cc(C(=O)OC2CC3CC4CC(C2)N3CC4=O)c1` (stereo not drawn) [endo-8-(3,5-dimethylbenzoyloxy)hexahydro-2,6-methano-2H-quinolizin-3(4H)-one hydrochloride], the “suppression” value by setting is: under setting [1], “suppressed the response dose-dependently”; under setting [2], “suppressed the response dose-dependently”.
